The target in assay [1] is Metabotropic glutamate receptor 2 (Homo sapiens, UniProt Q14416).
The target in assay [2] is Metabotropic glutamate receptor 4 (Rattus norvegicus, UniProt P31423).
Chain of Metabotropic glutamate receptor 4 (P31423 whole entry): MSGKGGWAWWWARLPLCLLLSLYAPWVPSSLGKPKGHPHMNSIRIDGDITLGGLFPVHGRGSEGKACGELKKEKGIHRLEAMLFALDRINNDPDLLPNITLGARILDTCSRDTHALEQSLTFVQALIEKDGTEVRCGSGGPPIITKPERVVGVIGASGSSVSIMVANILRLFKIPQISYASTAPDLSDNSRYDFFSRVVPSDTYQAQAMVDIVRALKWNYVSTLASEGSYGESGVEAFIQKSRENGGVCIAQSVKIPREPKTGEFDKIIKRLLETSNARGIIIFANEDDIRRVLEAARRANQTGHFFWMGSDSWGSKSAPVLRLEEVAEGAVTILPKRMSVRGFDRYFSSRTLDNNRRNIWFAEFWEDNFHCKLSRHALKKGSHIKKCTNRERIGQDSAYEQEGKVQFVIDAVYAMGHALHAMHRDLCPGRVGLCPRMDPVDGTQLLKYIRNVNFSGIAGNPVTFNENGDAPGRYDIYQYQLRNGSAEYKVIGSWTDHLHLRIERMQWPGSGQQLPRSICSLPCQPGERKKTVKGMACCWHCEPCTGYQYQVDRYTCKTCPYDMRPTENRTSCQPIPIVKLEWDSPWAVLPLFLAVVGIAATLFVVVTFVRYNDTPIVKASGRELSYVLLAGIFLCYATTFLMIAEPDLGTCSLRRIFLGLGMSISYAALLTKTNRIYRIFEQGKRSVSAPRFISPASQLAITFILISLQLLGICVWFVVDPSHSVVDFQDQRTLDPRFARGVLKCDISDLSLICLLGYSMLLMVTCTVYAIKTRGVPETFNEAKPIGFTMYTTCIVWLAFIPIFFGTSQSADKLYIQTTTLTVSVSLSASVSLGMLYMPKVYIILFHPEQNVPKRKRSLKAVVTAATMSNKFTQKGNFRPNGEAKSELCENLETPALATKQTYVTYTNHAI

Chain of Metabotropic glutamate receptor 2 (Q14416 whole entry): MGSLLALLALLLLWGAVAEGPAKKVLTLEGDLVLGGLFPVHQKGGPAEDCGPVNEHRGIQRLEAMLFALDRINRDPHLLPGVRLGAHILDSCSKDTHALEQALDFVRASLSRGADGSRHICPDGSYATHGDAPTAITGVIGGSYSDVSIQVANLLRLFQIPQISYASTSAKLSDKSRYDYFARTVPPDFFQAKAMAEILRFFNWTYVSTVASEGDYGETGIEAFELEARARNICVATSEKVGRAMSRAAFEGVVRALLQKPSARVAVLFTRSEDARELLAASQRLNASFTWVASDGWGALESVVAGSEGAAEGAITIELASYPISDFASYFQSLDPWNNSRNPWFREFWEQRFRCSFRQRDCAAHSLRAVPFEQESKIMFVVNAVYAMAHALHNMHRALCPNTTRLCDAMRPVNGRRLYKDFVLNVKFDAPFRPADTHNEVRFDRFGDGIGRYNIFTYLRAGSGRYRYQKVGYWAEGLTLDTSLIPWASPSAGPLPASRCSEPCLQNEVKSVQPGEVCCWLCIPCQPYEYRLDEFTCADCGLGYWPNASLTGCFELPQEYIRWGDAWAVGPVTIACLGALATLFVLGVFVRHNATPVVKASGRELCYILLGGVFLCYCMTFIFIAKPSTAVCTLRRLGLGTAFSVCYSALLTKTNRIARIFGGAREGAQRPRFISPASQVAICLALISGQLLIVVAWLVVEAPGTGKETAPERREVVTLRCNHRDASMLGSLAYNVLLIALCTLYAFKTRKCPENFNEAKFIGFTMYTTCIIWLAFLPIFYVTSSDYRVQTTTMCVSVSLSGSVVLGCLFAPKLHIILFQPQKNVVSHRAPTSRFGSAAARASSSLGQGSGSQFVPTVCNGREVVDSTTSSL

On to `N[C@@H](Cn1oc(=O)[nH]c1=O)C(=O)O` [2-amino-3-(3,5-dioxo[1,2,4]oxadiazolidin-2-yl)propionic acid], for which the Ki in assay [1] and in assay [2] was > 10 µM throughout.

On to `CC(N)(C(=O)O)c1ccc(S(=O)(=O)O)cc1` (stereo not drawn) [NSC_3964410], for which the Ki in assay [1] and in assay [2] was > 10 µM each time. On to `CC(N)(CCP(=O)(O)O)C(=O)O` (stereo not drawn) [NSC_1795545], for which the Ki in assay [1] and in assay [2] was > 10 µM throughout. For `CC(N)(C(=O)O)c1ccc(P(=O)(O)O)cc1` (stereo not drawn), the Ki in assay [1] and in assay [2] was > 10 µM throughout. Turning to `NC(C(=O)O)c1cc(=O)[nH]o1` (stereo not drawn) [Amino-(3-hydroxy-isoxazol-5-yl)-acetic acid(Ibotenic acid)], the Ki – broadly, the equilibrium dissociation constant of an inhibitor or competing ligand from its target – in assay [2] is > 10 µM. In the case of `NC(C(=O)O)c1ccc(C(=O)O)cc1` (stereo not drawn) [4-(Amino-carboxy-methyl)-benzoic acid], the Ki in assay [1] was > 10 µM. The same measure, in the same setting: then `C[C@@](N)(C(=O)O)c1ccc(C(=O)O)cc1` (racemic), with > 10 µM.

Turning to `N[C@@]1(C(=O)O)CC[C@H](C(=O)O)C1` [1S, 3R-ACPD], the Ki in assay [1] and in assay [2] was > 10 µM throughout. Regarding `C[C@](N)(C(=O)O)C1C[C@@H]1C(=O)O` (stereo partly drawn) [MCCG-I], the Ki in assay [1] was > 10 µM.

Take `N[C@@H](CCP(=O)(O)O)C(=O)O`: the Ki in assay [2] was determined as 0.4 µM. That is a sub-micromolar value. Same read-out and setting: then `N[C@@H](CCC(=O)O)C(=O)O` [L-Glutamic acid], with > 10 µM.

`N[C@H](C(=O)O)[C@H]1C[C@@H]1C(=O)O` [(1S,2S)-2-((S)-Amino-carboxy-methyl)-cyclopropanecarboxylic acid]: the Ki is 0.49 µM in assay [1] and 8.9 µM in assay [2]. In the case of `NC(C(=O)O)c1ccc(C(=O)O)c(O)c1` (stereo not drawn), the Ki in assay [1] is > 10 µM. With `N[C@@]1(C(=O)O)CC[C@H](CC(=O)O)C1` [(1S,3S)-HOMO-ACPD], the Ki in assay [1] and in assay [2] was > 10 µM each time.

In the case of `CC(N)(C(=O)O)c1ccc(-n2cnnn2)cc1` (stereo not drawn) [NSC_5311456], the Ki in assay [1] was > 10 µM.

Compound `N[C@@H](COP(=O)(O)O)C(=O)O` had a Ki in assay [2] of 2.3 µM.

The values are drawn from BindingDB's records for PubMed 8863838 (Upr Centre, 1996).
